Source: patent US9757439B2, “Peptide vaccine comprising mutant RAS peptide and chemotherapeutic agent” (priority 2014, dated 2017)

What was measured:
[1] = test system: resectable pancreatic cancer; details: postoperative gemcitabine versus no gemcitabine; cited from earlier work
[2] = test system: DC vaccine-induced T-cell proliferation; details: concomitant administration of gemcitabine and the DC vaccine; cited from earlier work
[3] = test system: resected pancreatic cancer; details: in vivo

Nc1ccn([C@@H]2O[C@H](CO)[C@@H](O)C2(F)F)c(=O)n1 [gemcitabine, 4-amino-1-(2-deoxy-2,2-difluoro-β-D-erythro-pentofuranosyl)pyrimidin-2(1H)-on]
development of recurrent disease after complete resection [1]: significantly delayed | vaccine-induced immune response [2]: significantly impaired | principal adverse event related to gemcitabine ([3]; human, 6 four-week cycles): grade 3/4 neutropenia | serious adverse events considered related to gemcitabine [3]: pulmonary infection and two episodes of fever
